Results on two compounds are retold here after patent publication US20080312211A1, “Antibacterial Pyrrolopyridines, Pyrrolopyrimidines and Pyrroloazepines-154” (ASTRAZENECA AB, priority 2005, published 2008).

Each structure is given as a SMILES string.

Broadly, the melting point is the temperature of the solid-liquid transition.

In series [1] the test system is Streptococcus pneumoniae. As to the kind of experiment: Bacterial susceptibility testing in liquid media (MIC). The series is classed as cell-based. On the set-up: unit not given here. As to conditions: lowest concentration reducing growth by 80% or more; 37 degrees C., 24 hrs. On the procedure:
Compounds were tested for antimicrobial activity by susceptibility testing in liquid media. Compounds were dissolved in dimethylsulfoxide and tested in 10 doubling dilutions in the susceptibility assays. The organisms used in the assay were grown overnight on suitable agar media and then suspended in a liquid medium appropriate for the growth of the organism. The suspension was a 0.5 McFarland and a further 1 in 10 dilution was made into the same liquid medium to prepare the final organism suspension in 100 μL. Plates were incubated under appropriate conditions at 37 degrees C. for 24 hrs prior to reading. The Minimum Inhibitory Concentration was determined as the lowest drug concentration able to reduce growth by 80% or more.

For `COC(=O)c1cnc(N2CCC(n3c(=O)[nH]c4c(C#N)c(C)[nH]c4c3=O)CC2)s1` [Example 1, Methyl 2-[4-(7-cyano-6-methyl-2,4-dioxo-1,2,4,5-tetrahydro-3H-pyrrolo[3,2-d]pyrimidin-3-yl)piperidin-1-yl]-1,3-thiazole-5-carboxylate], the melting point was > 345 °C (dec.).

In series [1], `COC1CN(c2ncc(C(=O)O)s2)CCC1n1ccc2c(Cl)c(C)[nH]c2c1=O` (stereo not drawn) [Example 22, 2-[3,4-cis-4-(3-Chloro-2-methyl-7-oxo-1,7-dihydro-6H-pyrrolo[2,3-c]pyridin-6-yl)-3-methoxypiperidin-1-yl]-1,3-thiazole-5-carboxylic acid] came in with an MIC of 50.
